Consider 18 compounds from US11174245B2, “Benzimidazole compounds and derivatives as EGFR inhibitors” (Boehringer Ingelheim International GmbH, priority 2018, dated 2021).

By IC50 is commonly meant the concentration at which inhibition is half-maximal.

Each structure is given as a SMILES string.

Chain of EGFR (mutated) 695-1022, T790M, C797S, L858R (P00533 695-1022 T790M/C797S/L858R): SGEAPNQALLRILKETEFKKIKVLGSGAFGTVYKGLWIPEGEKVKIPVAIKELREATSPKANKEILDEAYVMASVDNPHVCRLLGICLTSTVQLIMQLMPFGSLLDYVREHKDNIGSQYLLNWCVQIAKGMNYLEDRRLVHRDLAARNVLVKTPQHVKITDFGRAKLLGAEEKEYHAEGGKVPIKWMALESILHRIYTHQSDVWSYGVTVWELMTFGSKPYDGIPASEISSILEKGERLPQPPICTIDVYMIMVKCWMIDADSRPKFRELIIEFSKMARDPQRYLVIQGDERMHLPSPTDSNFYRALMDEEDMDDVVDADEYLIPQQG
Chain of EGFR del19 T790M C797S protein in Ba/F3 cells (P00533 with tags, fused parts or gaps C797S/DEL746-750/T790M limits assumed): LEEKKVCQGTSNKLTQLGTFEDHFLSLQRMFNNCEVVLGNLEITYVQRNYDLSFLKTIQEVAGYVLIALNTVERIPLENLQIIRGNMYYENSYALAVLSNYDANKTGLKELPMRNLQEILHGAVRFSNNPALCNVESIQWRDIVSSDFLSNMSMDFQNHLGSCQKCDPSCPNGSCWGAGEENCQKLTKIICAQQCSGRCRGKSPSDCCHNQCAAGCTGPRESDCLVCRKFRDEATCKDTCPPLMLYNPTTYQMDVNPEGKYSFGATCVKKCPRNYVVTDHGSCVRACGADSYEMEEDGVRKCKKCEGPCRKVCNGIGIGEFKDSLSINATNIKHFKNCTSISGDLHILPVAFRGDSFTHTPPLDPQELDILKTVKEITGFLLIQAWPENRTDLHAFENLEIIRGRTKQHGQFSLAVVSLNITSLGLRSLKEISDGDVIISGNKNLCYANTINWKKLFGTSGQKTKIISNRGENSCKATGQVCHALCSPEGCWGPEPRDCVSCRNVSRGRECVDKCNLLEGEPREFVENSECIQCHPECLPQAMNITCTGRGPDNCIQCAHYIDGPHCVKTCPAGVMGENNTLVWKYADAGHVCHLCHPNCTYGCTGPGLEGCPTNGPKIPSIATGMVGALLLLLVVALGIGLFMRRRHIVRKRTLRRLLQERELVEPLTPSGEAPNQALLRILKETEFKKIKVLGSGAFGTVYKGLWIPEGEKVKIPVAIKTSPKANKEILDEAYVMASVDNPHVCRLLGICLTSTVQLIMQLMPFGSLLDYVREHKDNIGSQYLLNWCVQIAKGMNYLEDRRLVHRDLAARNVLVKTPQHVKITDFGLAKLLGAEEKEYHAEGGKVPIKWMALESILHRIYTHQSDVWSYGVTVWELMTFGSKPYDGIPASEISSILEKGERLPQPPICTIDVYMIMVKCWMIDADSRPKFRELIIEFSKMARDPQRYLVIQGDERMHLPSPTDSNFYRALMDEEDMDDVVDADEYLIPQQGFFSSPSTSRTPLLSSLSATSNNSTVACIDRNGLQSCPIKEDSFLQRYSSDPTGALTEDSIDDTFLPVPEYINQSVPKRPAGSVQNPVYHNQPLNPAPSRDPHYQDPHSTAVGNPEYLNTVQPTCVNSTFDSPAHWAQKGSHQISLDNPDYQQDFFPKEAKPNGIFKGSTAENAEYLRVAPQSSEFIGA

The first assay deals with EGFR (mutated) 695-1022, T790M, C797S, L858R (Homo sapiens (Human), UniProt P00533, C797S/L858R/T790M). As to the kind of experiment: Biochemical EGFR inhibition assay (TR-FRET, poly-GT substrate), EGFR T790M C797S L858R. Particulars: read-out: LR_TM_CS (5 μM ATP) IC50; 5 μM ATP. Here is the method:
(§1) Biochemical EGFR Inhibition Assays
(§2) Initially, the inhibitory effect of compounds according to the invention is measured in biochemical assays which measure the phosphorylation activity of EGFR enzyme forms on poly-GT substrate in the presence of different concentrations of ATP (5 μM and 100 μM final assay concentration).
(§3) The following enzyme forms of EGFR are representative examples that can be used in these assays at the given concentrations:
(§4) For the chosen highest assay concentration of 100 μM, 150 nL of compound solution is transferred from a 10 mM DMSO compound stock solution. A series of eleven fivefold dilutions per compound is transferred to the assay plate, compound dilutions are tested in duplicates. DMSO is added as backfill to a total volume of 150 nL. The assay runs on a fully automated robotic system.
(§5) These biochemical EGFR enzyme form compound dose-response assays quantify the kinase activity via phosphorylation of a tagged poly-GT substrate. The results of the assay are provided as IC50 values.
On the technique in general: In TR-FRET formats the signal depends on donor and acceptor labels being close together.
In the case of `COc1ccccc1-c1cc(C(=O)/N=c2\[nH]c3ccccc3n2[C@@H]2CC[C@H](O)[C@@H](O)C2)ccn1` [I-198], the IC50 came out at 7.7 nM.

In the case of `Cn1cc(-c2cc(C(=O)/N=c3\[nH]c4cc(CC#N)ccc4n3CC(C)(C)O)ccn2)cn1` [I-199], the IC50 is 6.8 nM.

Consider `O=C(/N=c1\[nH]c2ccccc2n1[C@H]1CC[C@@H](O)CC1)c1ccnc(-c2cnn(C(F)F)c2)c1` [I-201], for which the IC50 was 1.2 nM.

Take `CC(=O)N1CCC(c2ccc3c(c2)[nH]/c(=N\C(=O)c2cc(C#N)nc(-c4cnn(C)c4)c2)n3[C@H]2CC[C@@H](O)CC2)CC1` [I-202]: the IC50 stood at 0.9 nM.

In the case of `Cc1cc(C(=O)/N=c2\[nH]c3ccccc3n2[C@H]2CCC[C@H](O)C2)cc(-c2cnn(C)c2)n1` [I-204], the IC50 was found to be 26.2 nM.

`CC(=O)N1CCC(c2ccc3c(c2)[nH]/c(=N\C(=O)c2cc(C)nc(-c4cnn(C)c4)c2)n3[C@H]2CC[C@@H](O)CC2)CC1` [I-205]: the IC50 was 3.6 nM.

Regarding `Cc1cc(C(=O)/N=c2\[nH]c3ccccc3n2[C@@H]2C[C@H](O)C[C@H](O)C2)cc(-c2cnn(C)c2)n1` [I-206], the IC50 was 17.7 nM.

With `Cn1cc(-c2cc(C(=O)/N=c3\[nH]c4ccccc4n3[C@H]3C[C@H](O)C[C@H](O)C3)ccn2)cn1` [I-207], the IC50 was determined as 3 nM.

In the case of `Cc1cc(C(=O)/N=c2\[nH]c3cc(CN4CCN(C)CC4)ccc3n2[C@H]2CCC[C@H](O)C2)cc(-c2cnn(C)c2)n1` [I-208], the IC50 was 5.4 nM.

Consider `Cc1cc(C(=O)/N=c2\[nH]c3cc(CN4CCOCC4)ccc3n2[C@H]2CCC[C@H](O)C2)cc(-c2cnn(C)c2)n1` [I-209], for which the IC50 was 8.1 nM.

On to `Cn1cc(-c2cc(C(=O)/N=c3\[nH]c4ccccc4n3[C@H]3CCC[C@H](O)C3)cc(C#N)n2)cn1` [I-210], for which the IC50 was 4.3 nM.

Regarding `Cn1cc(-c2cc(C(=O)/N=c3\[nH]c4ccccc4n3[C@H]3CC[C@@H](O)CC3)cc(N)n2)cn1` [I-211], the IC50 was determined as 0.3 nM.

Regarding `Cn1cc(-c2cc(C(=O)/N=c3\[nH]c4ccccc4n3C3CCCS(=O)(=O)C3)ccn2)cn1` (stereo not drawn) [I-212], the IC50 was 2.5 nM.

On to `Cc1cc(C(=O)/N=c2\[nH]c3ccc(CN4CCOCC4)cc3n2CC(C)(C)O)cc(-c2cnn(C)c2)n1` [I-213], for which the IC50 came out at 54.1 nM.

In the case of `Cc1cc(C(=O)/N=c2\[nH]c3ccc(CN4CCN(C)CC4)cc3n2CC(C)(C)O)cc(-c2cnn(C)c2)n1` [I-214], the IC50 is 10.1 nM.

Regarding `CNc1cc(C(=O)/N=c2\[nH]c3ccccc3n2[C@H]2CC[C@@H](O)CC2)cc(-c2cnn(C)c2)n1` [I-215], the IC50 was 4.9 nM.

On to `Cn1cc(-c2cc(C(=O)/N=c3\[nH]c4ccccc4n3[C@H]3CC[C@@H](O)CC3)cc(CF)n2)cn1` [I-216], for which the IC50 is 8.1 nM.

As for `Cc1cc(C(=O)/N=c2\[nH]c3ccccc3n2C2CCCS(=O)(=O)C2)cc(-c2cnn(C)c2)n1` (stereo not drawn) [I-217], the IC50 was found to be 33 nM.

For the next assay, the target named is EGFR wt (Homo sapiens (Human), UniProt P00533). Description: Biochemical EGFR inhibition assay (TR-FRET, poly-GT substrate), EGFR wt. As to conditions: read-out: wt (5 μM ATP) IC50; 5 μM ATP. As to the method: as §1, §2, §3, §4, §5
Chain of EGFR wt (P00533 25-1210): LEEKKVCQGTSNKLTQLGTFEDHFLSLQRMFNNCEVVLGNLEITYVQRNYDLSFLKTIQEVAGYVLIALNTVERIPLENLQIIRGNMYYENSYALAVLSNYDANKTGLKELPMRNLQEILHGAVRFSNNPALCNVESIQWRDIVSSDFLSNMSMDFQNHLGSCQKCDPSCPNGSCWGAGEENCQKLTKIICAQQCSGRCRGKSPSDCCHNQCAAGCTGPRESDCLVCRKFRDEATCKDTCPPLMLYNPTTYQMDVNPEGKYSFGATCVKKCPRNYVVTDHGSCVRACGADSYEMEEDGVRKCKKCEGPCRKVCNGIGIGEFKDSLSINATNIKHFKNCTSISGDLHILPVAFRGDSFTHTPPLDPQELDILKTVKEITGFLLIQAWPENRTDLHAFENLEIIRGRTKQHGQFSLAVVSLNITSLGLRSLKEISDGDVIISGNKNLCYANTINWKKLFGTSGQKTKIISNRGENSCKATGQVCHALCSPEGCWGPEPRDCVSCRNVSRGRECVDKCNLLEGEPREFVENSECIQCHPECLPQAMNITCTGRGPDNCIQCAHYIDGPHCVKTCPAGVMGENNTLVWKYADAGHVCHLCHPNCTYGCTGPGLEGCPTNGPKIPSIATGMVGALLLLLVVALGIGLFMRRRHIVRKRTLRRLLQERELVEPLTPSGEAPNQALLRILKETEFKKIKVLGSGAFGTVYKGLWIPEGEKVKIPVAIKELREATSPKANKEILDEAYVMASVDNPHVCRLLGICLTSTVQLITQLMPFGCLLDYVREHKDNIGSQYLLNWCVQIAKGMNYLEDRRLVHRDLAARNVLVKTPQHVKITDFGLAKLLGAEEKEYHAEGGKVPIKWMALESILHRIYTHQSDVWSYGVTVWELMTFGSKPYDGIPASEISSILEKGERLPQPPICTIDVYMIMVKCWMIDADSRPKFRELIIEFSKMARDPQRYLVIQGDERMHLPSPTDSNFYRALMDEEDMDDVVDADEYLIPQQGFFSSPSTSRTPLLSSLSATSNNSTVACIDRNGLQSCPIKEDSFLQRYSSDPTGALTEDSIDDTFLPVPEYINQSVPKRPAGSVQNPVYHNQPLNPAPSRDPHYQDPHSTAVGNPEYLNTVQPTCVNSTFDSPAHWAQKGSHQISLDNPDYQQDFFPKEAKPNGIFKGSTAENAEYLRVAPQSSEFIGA
In the case of `COc1ccccc1-c1cc(C(=O)/N=c2\[nH]c3ccccc3n2[C@@H]2CC[C@H](O)[C@@H](O)C2)ccn1` [I-198], the IC50 is 77.1 nM.

For `Cn1cc(-c2cc(C(=O)/N=c3\[nH]c4cc(CC#N)ccc4n3CC(C)(C)O)ccn2)cn1` [I-199], the IC50 stood at 1520 nM.

As for `O=C(/N=c1\[nH]c2ccccc2n1[C@H]1CC[C@@H](O)CC1)c1ccnc(-c2cnn(C(F)F)c2)c1` [I-201], the IC50 was 231 nM.

Take `CC(=O)N1CCC(c2ccc3c(c2)[nH]/c(=N\C(=O)c2cc(C#N)nc(-c4cnn(C)c4)c2)n3[C@H]2CC[C@@H](O)CC2)CC1` [I-202]: the 50% inhibitory concentration (IC50) came out at 173 nM.

For `Cc1cc(C(=O)/N=c2\[nH]c3ccccc3n2[C@H]2CCC[C@H](O)C2)cc(-c2cnn(C)c2)n1` [I-204], the IC50 was 9290 nM.

`CC(=O)N1CCC(c2ccc3c(c2)[nH]/c(=N\C(=O)c2cc(C)nc(-c4cnn(C)c4)c2)n3[C@H]2CC[C@@H](O)CC2)CC1` [I-205]: the IC50 worked out at 1480 nM.

For `Cc1cc(C(=O)/N=c2\[nH]c3ccccc3n2[C@@H]2C[C@H](O)C[C@H](O)C2)cc(-c2cnn(C)c2)n1` [I-206], the IC50 was 12900 nM.

As for `Cn1cc(-c2cc(C(=O)/N=c3\[nH]c4ccccc4n3[C@H]3C[C@H](O)C[C@H](O)C3)ccn2)cn1` [I-207], the IC50 was found to be 539 nM.

With `Cc1cc(C(=O)/N=c2\[nH]c3cc(CN4CCN(C)CC4)ccc3n2[C@H]2CCC[C@H](O)C2)cc(-c2cnn(C)c2)n1` [I-208], the IC50 stood at 7470 nM.

With `Cc1cc(C(=O)/N=c2\[nH]c3cc(CN4CCOCC4)ccc3n2[C@H]2CCC[C@H](O)C2)cc(-c2cnn(C)c2)n1` [I-209], the IC50 was 5800 nM.

`Cn1cc(-c2cc(C(=O)/N=c3\[nH]c4ccccc4n3[C@H]3CCC[C@H](O)C3)cc(C#N)n2)cn1` [I-210]: the IC50 came out at 664 nM.

As to `Cn1cc(-c2cc(C(=O)/N=c3\[nH]c4ccccc4n3[C@H]3CC[C@@H](O)CC3)cc(N)n2)cn1` [I-211], the IC50 was 249 nM.

As to `Cn1cc(-c2cc(C(=O)/N=c3\[nH]c4ccccc4n3C3CCCS(=O)(=O)C3)ccn2)cn1` (stereo not drawn) [I-212], the IC50 is 318 nM.

`Cc1cc(C(=O)/N=c2\[nH]c3ccc(CN4CCOCC4)cc3n2CC(C)(C)O)cc(-c2cnn(C)c2)n1` [I-213]: the IC50 is above 100000 nM.

With `Cc1cc(C(=O)/N=c2\[nH]c3ccc(CN4CCN(C)CC4)cc3n2CC(C)(C)O)cc(-c2cnn(C)c2)n1` [I-214], the IC50 was determined as 9660 nM.

Regarding `CNc1cc(C(=O)/N=c2\[nH]c3ccccc3n2[C@H]2CC[C@@H](O)CC2)cc(-c2cnn(C)c2)n1` [I-215], the IC50 is 8380 nM.

In the case of `Cn1cc(-c2cc(C(=O)/N=c3\[nH]c4ccccc4n3[C@H]3CC[C@@H](O)CC3)cc(CF)n2)cn1` [I-216], the IC50 is 2670 nM.

For the compound `Cc1cc(C(=O)/N=c2\[nH]c3ccccc3n2C2CCCS(=O)(=O)C2)cc(-c2cnn(C)c2)n1` (stereo not drawn) [I-217], the IC50 is above 100000 nM.

A further assay addresses EGFR del19 T790M C797S protein in Ba/F3 cells (Homo sapiens, UniProt P00533, C797S/DEL746-750/T790M). Description: pEGFR assay (AlphaScreen Surefire, EGFR Tyr1068 phosphorylation). It counts as cell-based.
Settings: not given
An outline of the steps: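 Transduced Ba/F3 cells, puromycin-selected and grown IL-3 independent, were treated with compound at 60.000 cells/well for 4 h at 37° C. Lysis followed for 20 min at room temperature, and Tyr1068 phospho-EGFR in lysate was detected after 2 h dark incubation. Results are IC50 values.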
(Bead proximity is the source of the signal in Alpha formats.)
Turning to `COc1ccccc1-c1cc(C(=O)/N=c2\[nH]c3ccccc3n2[C@@H]2CC[C@H](O)[C@@H](O)C2)ccn1` [I-198], the IC50 is 18 nM.

`Cn1cc(-c2cc(C(=O)/N=c3\[nH]c4cc(CC#N)ccc4n3CC(C)(C)O)ccn2)cn1` [I-199] came in with an IC50 of 15 nM.

The compound `O=C(/N=c1\[nH]c2ccccc2n1[C@H]1CC[C@@H](O)CC1)c1ccnc(-c2cnn(C(F)F)c2)c1` [I-201] showed an IC50 of 2 nM.

As to `CC(=O)N1CCC(c2ccc3c(c2)[nH]/c(=N\C(=O)c2cc(C#N)nc(-c4cnn(C)c4)c2)n3[C@H]2CC[C@@H](O)CC2)CC1` [I-202], the half-maximal inhibitory concentration (IC50) is 5 nM.

Regarding `Cc1cc(C(=O)/N=c2\[nH]c3ccccc3n2[C@H]2CCC[C@H](O)C2)cc(-c2cnn(C)c2)n1` [I-204], 6 nM corresponded to half-maximal inhibition (IC50).

For the compound `CC(=O)N1CCC(c2ccc3c(c2)[nH]/c(=N\C(=O)c2cc(C)nc(-c4cnn(C)c4)c2)n3[C@H]2CC[C@@H](O)CC2)CC1` [I-205], the IC50 amounted to 8 nM.

Regarding `Cc1cc(C(=O)/N=c2\[nH]c3ccccc3n2[C@@H]2C[C@H](O)C[C@H](O)C2)cc(-c2cnn(C)c2)n1` [I-206], the IC50 came out at 37 nM.

`Cn1cc(-c2cc(C(=O)/N=c3\[nH]c4ccccc4n3[C@H]3C[C@H](O)C[C@H](O)C3)ccn2)cn1` [I-207] returned an IC50 of 26 nM.

Take `Cc1cc(C(=O)/N=c2\[nH]c3cc(CN4CCN(C)CC4)ccc3n2[C@H]2CCC[C@H](O)C2)cc(-c2cnn(C)c2)n1` [I-208]: 44 nM corresponded to half-maximal inhibition (IC50).

Compound `Cc1cc(C(=O)/N=c2\[nH]c3cc(CN4CCOCC4)ccc3n2[C@H]2CCC[C@H](O)C2)cc(-c2cnn(C)c2)n1` [I-209] showed an IC50 of 14 nM.

`Cn1cc(-c2cc(C(=O)/N=c3\[nH]c4ccccc4n3[C@H]3CCC[C@H](O)C3)cc(C#N)n2)cn1` [I-210]: it took 9 nM to reach half-maximal inhibition (IC50).

In the case of `Cn1cc(-c2cc(C(=O)/N=c3\[nH]c4ccccc4n3[C@H]3CC[C@@H](O)CC3)cc(N)n2)cn1` [I-211], the IC50 came out at 1 nM.

In turn, `Cn1cc(-c2cc(C(=O)/N=c3\[nH]c4ccccc4n3C3CCCS(=O)(=O)C3)ccn2)cn1` (stereo not drawn) [I-212] returned an IC50 of 22 nM.

Consider `Cc1cc(C(=O)/N=c2\[nH]c3ccc(CN4CCOCC4)cc3n2CC(C)(C)O)cc(-c2cnn(C)c2)n1` [I-213], for which half-maximal inhibition (IC50) required 45 nM.

In turn, `Cc1cc(C(=O)/N=c2\[nH]c3ccc(CN4CCN(C)CC4)cc3n2CC(C)(C)O)cc(-c2cnn(C)c2)n1` [I-214] returned an IC50 of 38 nM.

`CNc1cc(C(=O)/N=c2\[nH]c3ccccc3n2[C@H]2CC[C@@H](O)CC2)cc(-c2cnn(C)c2)n1` [I-215] gave an IC50 of 14 nM.

As for `Cn1cc(-c2cc(C(=O)/N=c3\[nH]c4ccccc4n3[C@H]3CC[C@@H](O)CC3)cc(CF)n2)cn1` [I-216], inhibition was half-maximal at 17 nM (IC50).

As to `Cc1cc(C(=O)/N=c2\[nH]c3ccccc3n2C2CCCS(=O)(=O)C2)cc(-c2cnn(C)c2)n1` (stereo not drawn) [I-217], the IC50 came out at 75 nM.
